Experimental findings from article PMC9304199, “A small molecule CFTR potentiator restores ATP‐dependent channel gating to the cystic fibrosis mutant G551D‐CFTR” (British Journal of Pharmacology, 2022) are described below.

The target in the assay is F508del‐CFTR (Homo sapiens, UniProt P13569, DEL508-508). Kind of assay: Ussing chamber apical Cl− current (ICl apical) in FRT epithelia expressing F508del‐CFTR. In kind it is cell-based. Also on record: assays at Charles River Laboratories (ChanTest). To be noted: for EC50: F508del‐CFTR FRT epithelia, lumacaftor (5 μM) rescued, ICl apical, 27°C, read-out: EC50 (μM) (95% CI). On the procedure: Ussing chamber studies to determine the concentration–response relationships of CFTR potentiators (Figure 1c–f) were performed at Charles River Laboratories (ChanTest) (Cleveland, OH, USA). For these studies, FRT cells were stably transfected with CFTR cDNAs with the F508del and G551D variants and the common polymorphism M470 (synthesised by System Biosciences, Palo Alto, CA, USA) using the Flp‐In™ system (Thermo Fisher Scientific, Waltham, MA, USA). The F508del‐CFTR cDNA contained the following differences from the canonical CFTR cDNA sequence (NCBI Accession Number NM_000492): del CTT (1521–1523) to delete F508; synonymous changes T > C (798), A > G (801), T > C (804) to remove a cryptic bacterial promoter; synonymous change T > C (1095); G > A (1408) to give M470 and was amplified using the primers 5′ […] 3′ and 5′ […] 3′. The G551D‐CFTR cDNA contained the following differences from the canonical CFTR cDNA sequence (NCBI Accession Number NM_000492): G > A (1652) to replace G551 with D551; synonymous changes T > C (798), A > G (801), T > C (804) to remove a cryptic bacterial promoter; synonymous change A > C (516); synonymous change T > C (1095); G > A (1408) to give M470 and was amplified using the primers 5′ […] 3′ and 5′ […] 3′. Using Kpn1 and Not1 restriction sites, the F508del‐ and G551D‐CFTR cDNAs were inserted into pcDNA5/FRT (Flp‐In™) (RRID:Addgene_31984). […]
Chain of F508del‐CFTR (P13569 with tags, fused parts or gaps DEL508-508): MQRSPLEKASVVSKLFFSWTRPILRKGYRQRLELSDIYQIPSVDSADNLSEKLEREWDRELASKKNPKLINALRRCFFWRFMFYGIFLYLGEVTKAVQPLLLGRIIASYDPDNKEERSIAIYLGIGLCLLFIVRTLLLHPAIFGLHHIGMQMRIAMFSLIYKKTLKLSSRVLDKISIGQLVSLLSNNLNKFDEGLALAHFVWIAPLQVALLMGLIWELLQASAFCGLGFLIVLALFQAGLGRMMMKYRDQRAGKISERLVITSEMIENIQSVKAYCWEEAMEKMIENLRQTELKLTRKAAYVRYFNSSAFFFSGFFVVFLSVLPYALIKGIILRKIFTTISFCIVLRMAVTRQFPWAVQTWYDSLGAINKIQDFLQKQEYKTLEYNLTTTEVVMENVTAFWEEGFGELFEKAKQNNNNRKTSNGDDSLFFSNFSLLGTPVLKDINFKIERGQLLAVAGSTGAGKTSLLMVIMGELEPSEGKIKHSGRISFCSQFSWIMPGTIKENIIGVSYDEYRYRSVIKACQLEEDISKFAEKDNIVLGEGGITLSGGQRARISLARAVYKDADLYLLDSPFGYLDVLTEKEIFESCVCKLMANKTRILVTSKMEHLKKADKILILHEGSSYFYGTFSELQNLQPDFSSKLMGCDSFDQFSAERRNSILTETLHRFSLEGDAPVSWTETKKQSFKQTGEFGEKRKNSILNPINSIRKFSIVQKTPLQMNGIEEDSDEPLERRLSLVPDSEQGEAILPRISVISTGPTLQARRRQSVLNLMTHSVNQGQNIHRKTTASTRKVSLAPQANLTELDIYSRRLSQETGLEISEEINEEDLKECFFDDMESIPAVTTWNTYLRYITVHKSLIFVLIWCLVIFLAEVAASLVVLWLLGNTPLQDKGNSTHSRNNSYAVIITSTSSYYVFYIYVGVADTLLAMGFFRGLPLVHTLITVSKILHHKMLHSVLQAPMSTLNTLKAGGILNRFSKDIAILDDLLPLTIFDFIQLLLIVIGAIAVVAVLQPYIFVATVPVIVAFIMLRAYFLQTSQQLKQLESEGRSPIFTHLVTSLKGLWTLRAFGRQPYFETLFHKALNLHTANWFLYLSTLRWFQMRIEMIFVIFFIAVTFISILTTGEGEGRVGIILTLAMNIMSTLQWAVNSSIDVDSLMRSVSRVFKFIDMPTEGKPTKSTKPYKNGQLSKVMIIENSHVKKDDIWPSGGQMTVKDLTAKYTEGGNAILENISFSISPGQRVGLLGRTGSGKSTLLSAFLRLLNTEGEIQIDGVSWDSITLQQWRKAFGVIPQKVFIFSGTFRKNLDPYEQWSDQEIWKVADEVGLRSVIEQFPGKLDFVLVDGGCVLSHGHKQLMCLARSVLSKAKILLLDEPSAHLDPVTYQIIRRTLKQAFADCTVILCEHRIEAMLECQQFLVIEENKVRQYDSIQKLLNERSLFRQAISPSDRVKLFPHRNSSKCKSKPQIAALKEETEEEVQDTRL
To test the effects of CP‐628006 on CFTR Cl^− channels in the apical membrane of FRT epithelia, we permeabilized the basolateral membrane with amphotericin B (100 μM). After cancelling voltage offsets, we clamped transepithelial voltage at 0 mV and measured apical Cl^− current (ICl ^apical) continuously using a Physiologic Instruments VCC MC6/8 multichannel voltage/current clamp (Li et al., [2004]).

SMILES strings stand for the structures.

Regarding `Cc1ncccc1CNC(=O)c1ccc2c(c1)CC[C@H]1C[C@](O)(CCC(F)(F)F)CC[C@]21Cc1ccccc1` (racemic) [CP‐628006, rac‐(4bR,7R,8aS)‐4b‐benzyl‐7‐hydroxy‐N‐((2‐methylpyridin‐3‐yl)methyl)‐7‐(3,3,3‐trifluoropropyl)‐4b,5,6,7,8,8a,9,10‐octahydrophenanthrene‐2‐carboxamide], the half-maximal effective concentration (EC50) is over 0.5 µM.

Regarding `CC(C)(C)c1cc(C(C)(C)C)c(NC(=O)c2c[nH]c3ccccc3c2=O)cc1O` [ivacaftor, reference compound], the concentration for a half-maximal effect (EC50) was determined as 0.002 µM. Where the note is “read-out: Maximal effect (%) (95% CI)”, the Emax turned out to be 103%.
